ChEMBL document CHEMBL5252552, “Defined concatenated α6α1β3γ2 GABAA receptor constructs reveal dual action of pyrazoloquinolinone allosteric modulators” (Bioorg Med Chem, 2019)

What was measured:
[1] = target: T1, Gamma-aminobutyric acid receptor subunit alpha-1/alpha-6/beta-3/gamma-2 (Rattus norvegicus, UniProt P18508+P30191+P62813+P63079); assay: (§1) Positive allosteric modulation of rat recombinant GABAA gamma2beta3alpha1-beta3alpha6 receptor expressed in Xenopus laevis oocytes assessed as increase in GABA-induced current amplitude at -80 mV holding potential under less potent phase in presence of GABA EC1 to 1.5 by two-electrode voltage-clamp assay; type: cell-based, Oocyte
T1 sequence (P18508 whole entry): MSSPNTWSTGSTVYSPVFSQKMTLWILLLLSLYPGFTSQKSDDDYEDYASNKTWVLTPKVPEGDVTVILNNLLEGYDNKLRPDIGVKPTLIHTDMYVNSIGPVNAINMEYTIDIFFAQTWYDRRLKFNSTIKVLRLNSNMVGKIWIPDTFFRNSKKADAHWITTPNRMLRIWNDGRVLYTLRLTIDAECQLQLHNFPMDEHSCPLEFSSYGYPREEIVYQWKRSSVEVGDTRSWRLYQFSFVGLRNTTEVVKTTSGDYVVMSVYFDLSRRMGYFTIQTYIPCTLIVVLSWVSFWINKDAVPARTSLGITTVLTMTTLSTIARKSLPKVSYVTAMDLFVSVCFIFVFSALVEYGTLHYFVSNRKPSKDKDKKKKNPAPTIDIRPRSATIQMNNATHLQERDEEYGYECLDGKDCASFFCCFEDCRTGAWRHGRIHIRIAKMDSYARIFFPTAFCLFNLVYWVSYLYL
T1 sequence (P30191 whole entry): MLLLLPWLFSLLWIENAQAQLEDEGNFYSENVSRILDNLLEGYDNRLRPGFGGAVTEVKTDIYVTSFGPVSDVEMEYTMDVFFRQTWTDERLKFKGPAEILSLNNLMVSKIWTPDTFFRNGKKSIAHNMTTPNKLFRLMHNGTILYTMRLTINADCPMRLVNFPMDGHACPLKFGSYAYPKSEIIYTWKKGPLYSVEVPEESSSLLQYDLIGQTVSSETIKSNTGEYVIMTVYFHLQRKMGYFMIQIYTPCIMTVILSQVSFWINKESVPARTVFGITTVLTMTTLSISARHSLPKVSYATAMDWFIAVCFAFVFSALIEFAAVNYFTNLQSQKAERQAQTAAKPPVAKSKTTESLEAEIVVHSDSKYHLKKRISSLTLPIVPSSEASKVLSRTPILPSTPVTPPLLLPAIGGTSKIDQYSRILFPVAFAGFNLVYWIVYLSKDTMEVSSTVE
T1 sequence (P62813 whole entry): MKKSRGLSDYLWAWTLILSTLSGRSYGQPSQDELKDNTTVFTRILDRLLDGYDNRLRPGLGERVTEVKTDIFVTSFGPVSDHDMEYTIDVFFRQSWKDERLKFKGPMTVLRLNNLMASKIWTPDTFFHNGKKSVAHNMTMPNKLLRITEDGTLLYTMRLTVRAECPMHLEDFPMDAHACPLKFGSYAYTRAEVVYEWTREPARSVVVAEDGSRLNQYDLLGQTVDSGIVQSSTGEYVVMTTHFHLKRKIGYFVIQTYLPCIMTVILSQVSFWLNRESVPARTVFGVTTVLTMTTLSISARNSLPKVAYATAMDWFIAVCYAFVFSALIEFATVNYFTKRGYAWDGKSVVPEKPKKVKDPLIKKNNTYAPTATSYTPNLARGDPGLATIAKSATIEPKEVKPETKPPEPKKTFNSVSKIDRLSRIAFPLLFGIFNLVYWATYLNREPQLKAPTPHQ
T1 sequence (P63079 whole entry): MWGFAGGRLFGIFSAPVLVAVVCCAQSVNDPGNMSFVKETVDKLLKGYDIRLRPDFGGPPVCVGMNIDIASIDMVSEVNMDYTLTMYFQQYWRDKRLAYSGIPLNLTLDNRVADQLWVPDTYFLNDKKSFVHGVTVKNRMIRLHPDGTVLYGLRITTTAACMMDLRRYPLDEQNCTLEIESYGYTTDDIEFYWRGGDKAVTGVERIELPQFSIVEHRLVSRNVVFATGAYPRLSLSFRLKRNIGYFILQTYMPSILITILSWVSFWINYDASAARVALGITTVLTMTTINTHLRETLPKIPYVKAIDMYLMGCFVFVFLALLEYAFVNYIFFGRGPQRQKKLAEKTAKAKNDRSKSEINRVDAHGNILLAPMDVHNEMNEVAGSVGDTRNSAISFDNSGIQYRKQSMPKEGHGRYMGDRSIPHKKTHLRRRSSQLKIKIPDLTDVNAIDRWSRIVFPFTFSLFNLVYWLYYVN

[2] = target: Gamma-aminobutyric acid receptor subunit alpha-6/beta-3/gamma-2 (Rattus norvegicus, UniProt P18508+P30191+P63079); assay: Positive allosteric modulation of rat recombinant GABAA alpha6beta3gamma2 receptor expressed in Xenopus laevis oocytes assessed as increase in GABA-induced current amplitude at -80 mV holding potential under less potent phase in presence of GABA EC1 to 1.5 by two-electrode voltage-clamp assay; type: cell-based, Oocyte
Gamma-aminobutyric acid receptor subunit alpha-6/beta-3/gamma-2, sequence (P18508 whole entry): as the sequence (P18508 whole entry) above
Gamma-aminobutyric acid receptor subunit alpha-6/beta-3/gamma-2, sequence (P30191 whole entry): as the sequence (P30191 whole entry) above
Gamma-aminobutyric acid receptor subunit alpha-6/beta-3/gamma-2, sequence (P63079 whole entry): as the sequence (P63079 whole entry) above

[3] = target: T2, Gamma-aminobutyric acid receptor subunit alpha-6/beta-3/gamma-2 (Rattus norvegicus) (UniProt P18508+P30191+P63079); assay: Positive allosteric modulation of rat recombinant GABAA alpha6beta3gamma2 receptor expressed in Xenopus laevis oocytes assessed as maximal current at -80 mV holding potential under more potent phase in presence of GABA EC1 to 1.5 by two-electrode voltage-clamp assay relative to control; type: cell-based; conditions: Oocyte, filed as positive allosteric modulator
[4] = target: T3, Gamma-aminobutyric acid receptor subunit alpha-1/beta-3/gamma-2 (Rattus norvegicus) (UniProt P18508+P62813+P63079); assay: Positive allosteric modulation of rat recombinant GABAA alpha1beta3gamma2 receptor expressed in Xenopus laevis oocytes assessed as maximal current at -80 mV holding potential under less potent phase in presence of GABA EC1 to 1.5 by two-electrode voltage-clamp assay relative to control; type: cell-based; conditions: Oocyte, filed as positive allosteric modulator
[5] = target: T1, Gamma-aminobutyric acid receptor subunit alpha-1/alpha-6/beta-3/gamma-2; assay: as §1, with “alpha6beta3alpha1-gamma2beta3” for “gamma2beta3alpha1-beta3alpha6”; type: cell-based, Oocyte
[6] = target: T4, Gamma-aminobutyric acid receptor subunit alpha-1/alpha-6/beta-3/gamma-2 (Rattus norvegicus) (UniProt P18508+P30191+P62813+P63079); assay: Positive allosteric modulation of rat recombinant GABAA alpha6beta3alpha1-gamma2beta3 receptor expressed in Xenopus laevis oocytes assessed as maximal current at -80 mV holding potential under less potent phase in presence of GABA EC1 to 1.5 by two-electrode voltage-clamp assay relative to control; type: cell-based; conditions: Oocyte, filed as positive allosteric modulator
[7] = target: T2, Gamma-aminobutyric acid receptor subunit alpha-6/beta-3/gamma-2 (Rattus norvegicus); assay: Positive allosteric modulation of rat recombinant GABAA alpha6beta3alpha6-gamma2beta3 receptor expressed in Xenopus laevis oocytes assessed as maximal efficacy at -80 mV holding potential at 30 nM in presence of GABA EC1 to 1.5 by two-electrode voltage-clamp assay; type: cell-based; conditions: Oocyte, filed as positive allosteric modulator
[8] = target: T2, Gamma-aminobutyric acid receptor subunit alpha-6/beta-3/gamma-2 (Rattus norvegicus); assay: Positive allosteric modulation of rat recombinant GABAA alpha6beta3alpha6-gamma2beta3 receptor expressed in Xenopus laevis oocytes assessed as maximal efficacy at -80 mV holding potential at 300 nM in presence of GABA EC1 to 1.5 by two-electrode voltage-clamp assay; type: cell-based; conditions: Oocyte, filed as positive allosteric modulator
[9] = target: T2, Gamma-aminobutyric acid receptor subunit alpha-6/beta-3/gamma-2 (Rattus norvegicus); assay: Positive allosteric modulation of rat recombinant GABAA alpha6beta3alpha6-gamma2beta3 receptor expressed in Xenopus laevis oocytes assessed as maximal efficacy at -80 mV holding potential at 3 uM in presence of GABA EC1 to 1.5 by two-electrode voltage-clamp assay; type: cell-based; conditions: Oocyte, filed as positive allosteric modulator
[10] = target: T2, Gamma-aminobutyric acid receptor subunit alpha-6/beta-3/gamma-2 (Rattus norvegicus); assay: Positive allosteric modulation of rat recombinant GABAA alpha6beta3alpha6-gamma2beta3 receptor expressed in Xenopus laevis oocytes assessed as maximal efficacy at -80 mV holding potential at 10 uM in presence of GABA EC1 to 1.5 by two-electrode voltage-clamp assay; type: cell-based; conditions: Oocyte, filed as positive allosteric modulator
[11] = target: T3, Gamma-aminobutyric acid receptor subunit alpha-1/beta-3/gamma-2 (Rattus norvegicus); assay: Positive allosteric modulation of rat recombinant GABAA alpha1beta3gamma2 receptor expressed in Xenopus laevis oocytes assessed as maximal efficacy at -80 mV holding potential at 30 nM in presence of GABA EC1 to 1.5 by two-electrode voltage-clamp assay; type: cell-based; conditions: Oocyte
[12] = target: T3, Gamma-aminobutyric acid receptor subunit alpha-1/beta-3/gamma-2 (Rattus norvegicus); assay: Positive allosteric modulation of rat recombinant GABAA alpha1beta3gamma2 receptor expressed in Xenopus laevis oocytes assessed as maximal efficacy at -80 mV holding potential at 10 nM in presence of GABA EC1 to 1.5 by two-electrode voltage-clamp assay; type: cell-based; conditions: Oocyte
[13] = target: T3, Gamma-aminobutyric acid receptor subunit alpha-1/beta-3/gamma-2 (Rattus norvegicus); assay: Positive allosteric modulation of rat recombinant GABAA alpha1beta3alpha1-gamma2beta3 receptor expressed in Xenopus laevis oocytes assessed as maximal efficacy at -80 mV holding potential at 10 nM in presence of GABA EC1 to 1.5 by two-electrode voltage-clamp assay; type: cell-based; conditions: Oocyte
[14] = target: T3, Gamma-aminobutyric acid receptor subunit alpha-1/beta-3/gamma-2 (Rattus norvegicus); assay: Positive allosteric modulation of rat recombinant GABAA alpha1beta3alpha1-gamma2beta3 receptor expressed in Xenopus laevis oocytes assessed as maximal efficacy at -80 mV holding potential at 1 uM in presence of GABA EC1 to 1.5 by two-electrode voltage-clamp assay; type: cell-based; conditions: Oocyte
[15] = target: T3, Gamma-aminobutyric acid receptor subunit alpha-1/beta-3/gamma-2 (Rattus norvegicus); assay: Positive allosteric modulation of rat recombinant GABAA alpha1beta3gamma2 receptor expressed in Xenopus laevis oocytes assessed as maximal efficacy at -80 mV holding potential at 100 nM in presence of GABA EC1 to 1.5 by two-electrode voltage-clamp assay; type: cell-based; conditions: Oocyte
[16] = target: T3, Gamma-aminobutyric acid receptor subunit alpha-1/beta-3/gamma-2 (Rattus norvegicus); assay: Positive allosteric modulation of rat recombinant GABAA alpha1beta3gamma2 receptor expressed in Xenopus laevis oocytes assessed as maximal efficacy at -80 mV holding potential at 1 uM in presence of GABA EC1 to 1.5 by two-electrode voltage-clamp assay; type: cell-based; conditions: Oocyte
[17] = target: T4, Gamma-aminobutyric acid receptor subunit alpha-1/alpha-6/beta-3/gamma-2 (Rattus norvegicus); assay: Positive allosteric modulation of rat recombinant GABAA gamma2beta3alpha1-beta3alpha6 receptor expressed in Xenopus laevis oocytes assessed as maximal efficacy at -80 mV holding potential at 100 nM in presence of GABA EC1 to 1.5 by two-electrode voltage-clamp assay; type: cell-based; conditions: Oocyte, filed as positive allosteric modulator
[18] = target: T4, Gamma-aminobutyric acid receptor subunit alpha-1/alpha-6/beta-3/gamma-2 (Rattus norvegicus); assay: Positive allosteric modulation of rat recombinant GABAA gamma2beta3alpha1-beta3alpha6 receptor expressed in Xenopus laevis oocytes assessed as maximal efficacy at -80 mV holding potential at 3 uM in presence of GABA EC1 to 1.5 by two-electrode voltage-clamp assay; type: cell-based; conditions: Oocyte, filed as positive allosteric modulator
[19] = target: T2, Gamma-aminobutyric acid receptor subunit alpha-6/beta-3/gamma-2 (Rattus norvegicus); assay: Positive allosteric modulation of rat recombinant GABAA alpha6beta3gamma2 receptor expressed in Xenopus laevis oocytes assessed as maximal efficacy at -80 mV holding potential at 1 nM in presence of GABA EC1 to 1.5 by two-electrode voltage-clamp assay; type: cell-based; conditions: Oocyte
[20] = target: T2, Gamma-aminobutyric acid receptor subunit alpha-6/beta-3/gamma-2 (Rattus norvegicus); assay: Positive allosteric modulation of rat recombinant GABAA alpha6beta3gamma2 receptor expressed in Xenopus laevis oocytes assessed as maximal efficacy at -80 mV holding potential at 30 uM in presence of GABA EC1 to 1.5 by two-electrode voltage-clamp assay; type: cell-based; conditions: Oocyte, filed as positive allosteric modulator
[21] = target: T4, Gamma-aminobutyric acid receptor subunit alpha-1/alpha-6/beta-3/gamma-2 (Rattus norvegicus); assay: Positive allosteric modulation of rat recombinant GABAA alpha6beta3alpha1-gamma2beta3 receptor expressed in Xenopus laevis oocytes assessed as maximal efficacy at -80 mV holding potential at 30 nM in presence of GABA EC1 to 1.5 by two-electrode voltage-clamp assay; type: cell-based; conditions: Oocyte
[22] = target: T4, Gamma-aminobutyric acid receptor subunit alpha-1/alpha-6/beta-3/gamma-2 (Rattus norvegicus); assay: Positive allosteric modulation of rat recombinant GABAA alpha6beta3alpha1-gamma2beta3 receptor expressed in Xenopus laevis oocytes assessed as maximal efficacy at -80 mV holding potential at 300 nM in presence of GABA EC1 to 1.5 by two-electrode voltage-clamp assay; type: cell-based; conditions: Oocyte, filed as positive allosteric modulator
[23] = target: T4, Gamma-aminobutyric acid receptor subunit alpha-1/alpha-6/beta-3/gamma-2 (Rattus norvegicus); assay: Positive allosteric modulation of rat recombinant GABAA alpha6beta3alpha1-gamma2beta3 receptor expressed in Xenopus laevis oocytes assessed as maximal efficacy at -80 mV holding potential at 1 uM in presence of GABA EC1 to 1.5 by two-electrode voltage-clamp assay; type: cell-based; conditions: Oocyte, filed as positive allosteric modulator

Q: What does the source list for `COc1ccc(-n2nc3c4ccc(Br)cc4[nH]cc-3c2=O)cc1`?
A: EC50 [1]: 36 µM; EC50 [2]: 11 µM; %max [3]: 70%; %max [4]: 132%; EC50 [5]: 7 µM; %max [6]: 1060%; Efficacy [7]: 65%; Efficacy [8]: 124%; Efficacy [9]: 320%; Efficacy [10]: 621%; Efficacy [11]: 2%; Efficacy [12]: 1%; Efficacy [13]: 1%; Efficacy [14]: 34%; Efficacy [15]: 5%; Efficacy [16]: 18%; Efficacy [17]: 45%; Efficacy [18]: 89%; Efficacy [19]: 9%; Efficacy [20]: 595%; Efficacy [21]: 8%; Efficacy [22]: 60%; Efficacy [23]: 144%
